Reference: ChEMBL document CHEMBL1909046, “DrugMatrix in vitro pharmacology data”

Tests used:
Adenosine receptor A3 = biological target: T1, Adenosine receptor A3 (Homo sapiens, UniProt P0DMS8); assay type: cell membranes, CHO-K1, Membrane; conditions: cho-k1;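 also: radioligand binding assay with AB-MECA serving as the labeled ligand; in other assays of this panel Not Active means under 50% inhibition at 10 µM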
T1 sequence (P0DMS8 whole entry): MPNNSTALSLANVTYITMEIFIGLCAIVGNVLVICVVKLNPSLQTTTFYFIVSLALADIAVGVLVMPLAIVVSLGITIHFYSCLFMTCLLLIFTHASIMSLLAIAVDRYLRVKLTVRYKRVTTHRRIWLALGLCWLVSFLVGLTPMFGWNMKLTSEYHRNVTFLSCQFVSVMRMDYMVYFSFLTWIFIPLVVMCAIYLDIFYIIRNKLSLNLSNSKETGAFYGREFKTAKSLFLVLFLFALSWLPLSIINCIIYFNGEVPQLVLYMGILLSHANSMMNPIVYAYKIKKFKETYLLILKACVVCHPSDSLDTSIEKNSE

[1] = biological target: T2, 5-hydroxytryptamine receptor 2C (Homo sapiens, UniProt P28335); assay: DRUGMATRIX: Serotonin (5-Hydroxytryptamine) 5-HT2C radioligand binding (ligand: [3H] Mesulergine); assay type: cell membranes, CHO-K1, Membrane; conditions: Not Active = under 50% inhibition at 10 µM; for Ki: read-out: Ki
T2 sequence (P28335 whole entry): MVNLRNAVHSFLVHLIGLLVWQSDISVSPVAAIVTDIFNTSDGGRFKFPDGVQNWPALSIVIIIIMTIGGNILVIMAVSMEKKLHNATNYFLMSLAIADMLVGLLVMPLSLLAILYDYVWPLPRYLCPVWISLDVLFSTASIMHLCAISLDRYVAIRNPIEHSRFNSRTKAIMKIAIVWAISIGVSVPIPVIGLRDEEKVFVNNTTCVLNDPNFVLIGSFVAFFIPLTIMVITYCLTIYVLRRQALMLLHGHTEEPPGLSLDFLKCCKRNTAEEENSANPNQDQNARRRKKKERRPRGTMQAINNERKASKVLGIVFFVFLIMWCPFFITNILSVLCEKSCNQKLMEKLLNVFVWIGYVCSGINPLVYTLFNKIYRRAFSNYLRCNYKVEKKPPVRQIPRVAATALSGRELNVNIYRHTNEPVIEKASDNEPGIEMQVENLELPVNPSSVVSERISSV

[2] = biological target: Matrix metalloproteinase-9 (Homo sapiens, UniProt P14780); assay type: cell-based;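 also: inhibition of isolated MMP-9 enzyme activity toward a synthetic peptide substrate, from the DrugMatrix protease screening panel; in other assays of this panel Not Active means under 50% inhibition at 10 µM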
D(1A) dopamine receptor = D(1A) dopamine receptor (Homo sapiens, UniProt P21728); assay: DRUGMATRIX: Dopamine D1 radioligand binding (ligand: [3H] SCH-23390); assay type: cell membranes, CHO, Membrane; conditions: Not Active = under 50% inhibition at 10 µM
[3] = DRUGMATRIX: Calcium Channel Type L, Dihydropyridine radioligand binding (ligand: [3H] Nitrendipine); assay type: cell membranes, Rattus norvegicus, Wistar, Cerebral cortex, Membrane; conditions: Not Active = under 50% inhibition at 10 µM
[4] = biological target: T3, Angiotensin-converting enzyme (Oryctolagus cuniculus, UniProt P12822); assay type: tissue-based, Lung;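 also: enzymatic inhibition of angiotensin-converting enzyme measured with FAPGG as the substrate; in other assays of this panel Not Active means under 50% inhibition at 10 µM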
T3 sequence (P12822 whole entry): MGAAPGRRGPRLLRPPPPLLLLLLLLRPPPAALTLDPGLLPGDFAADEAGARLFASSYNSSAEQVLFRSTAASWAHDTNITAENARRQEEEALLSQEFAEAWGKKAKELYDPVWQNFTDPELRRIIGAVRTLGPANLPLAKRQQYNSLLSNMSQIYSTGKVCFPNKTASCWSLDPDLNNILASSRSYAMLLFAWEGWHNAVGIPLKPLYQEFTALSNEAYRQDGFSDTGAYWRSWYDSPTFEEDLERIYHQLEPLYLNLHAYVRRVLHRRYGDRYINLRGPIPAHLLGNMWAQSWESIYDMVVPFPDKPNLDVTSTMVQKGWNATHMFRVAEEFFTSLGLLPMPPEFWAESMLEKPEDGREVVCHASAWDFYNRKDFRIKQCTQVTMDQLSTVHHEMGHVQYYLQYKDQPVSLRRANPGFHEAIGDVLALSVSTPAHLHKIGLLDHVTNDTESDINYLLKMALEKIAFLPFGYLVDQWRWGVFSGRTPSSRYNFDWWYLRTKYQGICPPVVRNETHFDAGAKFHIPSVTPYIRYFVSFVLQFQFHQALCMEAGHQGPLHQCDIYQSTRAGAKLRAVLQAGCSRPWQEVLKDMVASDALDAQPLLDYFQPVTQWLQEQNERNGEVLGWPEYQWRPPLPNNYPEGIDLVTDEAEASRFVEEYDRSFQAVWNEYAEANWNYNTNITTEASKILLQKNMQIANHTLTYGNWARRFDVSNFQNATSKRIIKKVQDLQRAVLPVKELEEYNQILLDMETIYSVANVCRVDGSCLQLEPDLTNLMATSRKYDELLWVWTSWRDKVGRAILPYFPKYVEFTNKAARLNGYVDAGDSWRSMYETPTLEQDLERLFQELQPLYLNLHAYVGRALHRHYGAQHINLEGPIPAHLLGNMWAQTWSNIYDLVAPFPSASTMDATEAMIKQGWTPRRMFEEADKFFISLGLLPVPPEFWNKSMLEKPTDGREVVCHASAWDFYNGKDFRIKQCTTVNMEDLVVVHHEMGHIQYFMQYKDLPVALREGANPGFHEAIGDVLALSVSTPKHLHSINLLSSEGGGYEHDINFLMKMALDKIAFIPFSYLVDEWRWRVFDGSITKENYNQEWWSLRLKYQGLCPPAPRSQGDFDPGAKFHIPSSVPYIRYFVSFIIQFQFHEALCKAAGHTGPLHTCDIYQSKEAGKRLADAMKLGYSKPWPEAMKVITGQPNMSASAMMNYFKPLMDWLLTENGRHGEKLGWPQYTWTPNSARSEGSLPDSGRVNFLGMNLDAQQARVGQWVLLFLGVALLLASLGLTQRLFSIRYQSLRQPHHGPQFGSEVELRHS

D(1A) dopamine receptor, sequence (P21728 whole entry): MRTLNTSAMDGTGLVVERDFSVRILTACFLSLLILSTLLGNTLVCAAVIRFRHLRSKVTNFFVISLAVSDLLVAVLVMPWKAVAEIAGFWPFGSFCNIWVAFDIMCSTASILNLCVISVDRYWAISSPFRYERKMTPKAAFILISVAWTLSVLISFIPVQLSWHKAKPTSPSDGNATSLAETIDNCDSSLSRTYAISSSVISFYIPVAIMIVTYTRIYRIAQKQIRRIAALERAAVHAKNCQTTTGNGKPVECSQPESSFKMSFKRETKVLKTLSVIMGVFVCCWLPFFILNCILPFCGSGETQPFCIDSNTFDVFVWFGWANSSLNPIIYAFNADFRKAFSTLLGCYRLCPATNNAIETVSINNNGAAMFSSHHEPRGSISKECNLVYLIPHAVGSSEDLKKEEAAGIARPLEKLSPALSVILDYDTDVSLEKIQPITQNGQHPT
Matrix metalloproteinase-9, sequence (P14780 whole entry): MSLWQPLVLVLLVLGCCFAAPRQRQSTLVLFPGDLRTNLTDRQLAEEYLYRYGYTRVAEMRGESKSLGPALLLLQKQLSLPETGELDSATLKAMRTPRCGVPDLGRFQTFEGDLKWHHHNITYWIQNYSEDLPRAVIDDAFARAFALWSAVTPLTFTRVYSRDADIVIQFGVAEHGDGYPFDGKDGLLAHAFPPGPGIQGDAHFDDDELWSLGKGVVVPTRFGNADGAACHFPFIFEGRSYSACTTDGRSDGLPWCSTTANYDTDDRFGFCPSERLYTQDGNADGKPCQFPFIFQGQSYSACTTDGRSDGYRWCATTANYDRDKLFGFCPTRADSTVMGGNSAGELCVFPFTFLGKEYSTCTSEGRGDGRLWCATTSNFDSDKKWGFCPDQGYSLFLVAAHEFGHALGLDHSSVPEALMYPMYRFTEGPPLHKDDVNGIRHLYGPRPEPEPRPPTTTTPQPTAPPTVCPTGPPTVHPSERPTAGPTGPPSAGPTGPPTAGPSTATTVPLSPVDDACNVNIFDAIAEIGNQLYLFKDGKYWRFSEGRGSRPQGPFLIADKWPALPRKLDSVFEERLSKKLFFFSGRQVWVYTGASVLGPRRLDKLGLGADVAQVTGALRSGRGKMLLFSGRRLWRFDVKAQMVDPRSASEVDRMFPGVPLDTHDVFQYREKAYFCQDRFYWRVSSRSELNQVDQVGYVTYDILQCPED

SMILES	IC50 (Adenosine receptor A3)	IC50 ([1]; cho-k1)	IC50 [2]	IC50 (D(1A) dopamine receptor; cho)	IC50 [3]	Ki [3]	IC50 [4]	IC50 ([1]; read-out: IC50)	Ki [1]	IC50 (D(1A) dopamine receptor; read-out: IC50)	Ki (D(1A) dopamine receptor; read-out: Ki)
CC(C)(C(=O)O)c1ccc(C(O)CCCN2CCC(C(O)(c3ccccc3)c3ccccc3)CC2)cc1 (stereo not given) [FEXOFENADINE]	Not Active	Not Active	Not Active	Not Active	Not Active	Not Active	Not Active				
CN1CCN(c2c(F)cc3c(=O)c(C(=O)O)cn(CCF)c3c2F)CC1 [FLEROXACIN]	Not Active	Not Active	Not Active	Not Active	Not Active	Not Active	Not Active				
O=c1[nH]c(=O)n([C@H]2C[C@H](O)[C@@H](CO)O2)cc1F [FLOXURIDINE]	Not Active	Not Active	Not Active	Not Active	Not Active	Not Active	Not Active				
COC(=O)Nc1nc2cc(C(=O)c3ccc(F)cc3)ccc2[nH]1 [FLUBENDAZOLE]	Not Active	Not Active	Not Active	Not Active	Not Active	Not Active	Not Active				
CC(=O)OCC(=O)[C@@]1(O)CC[C@H]2[C@@H]3CCC4=CC(=O)CC[C@]4(C)[C@@]3(F)[C@@H](O)C[C@@]21C [FLUDROCORTISONE ACETATE]	Not Active	Not Active	Not Active	Not Active	Not Active	Not Active	Not Active				
CCOC(=O)c1ncn2c1CN(C)C(=O)c1cc(F)ccc1-2 [FLUMAZENIL]	Not Active	Not Active	Not Active	Not Active	Not Active	Not Active	Not Active				
CC(=O)OCC(=O)[C@@]12OC(C)(C)O[C@@H]1C[C@H]1[C@@H]3C[C@H](F)C4=CC(=O)C=C[C@]4(C)[C@@]3(F)[C@@H](O)C[C@@]12C [FLUOCINONIDE]	Not Active	Not Active	Not Active	Not Active	Not Active	Not Active	Not Active				
O=C(O)P(=O)(O)O [FOSCARNET]	Not Active	Not Active	Not Active	Not Active	Not Active	Not Active	Not Active				
Cc1ccc(C)c(OCCCC(C)(C)C(=O)O)c1 [GEMFIBROZIL]	Not Active	Not Active	Not Active	Not Active	Not Active	Not Active	Not Active				
O=c1c(-c2ccc(O)cc2)coc2cc(O)cc(O)c12 [GENISTEIN]	Not Active		Not Active	Not Active	Not Active	Not Active	Not Active	14900 nM	7810 nM		
CCC1=C(C)CN(C(=O)NCCc2ccc(S(=O)(=O)NC(=O)N[C@H]3CC[C@H](C)CC3)cc2)C1=O [GLIMEPIRIDE]	Not Active	Not Active	Not Active	Not Active	Not Active	Not Active	Not Active				
Nc1cc(-c2ccncc2)c[nH]c1=O [INAMRINONE]	Not Active	Not Active	Not Active	Not Active	Not Active	Not Active	Not Active				
CCCCC1=NC2(CCCC2)C(=O)N1Cc1ccc(-c2ccccc2-c2nnn[nH]2)cc1 [IRBESARTAN]	Not Active	Not Active	Not Active	Not Active	Not Active	Not Active	Not Active				
CN1CCC(=C2c3ccccc3CC(=O)c3sccc32)CC1 [KETOTIFEN]	Not Active		Not Active		Not Active	Not Active	Not Active	160 nM	84 nM	872 nM	436 nM
N[C@@H](Cn1ccc(=O)c(O)c1)C(=O)O [L-MIMOSINE]	Not Active	Not Active	Not Active	Not Active	Not Active	Not Active	Not Active				
C[N+](C)(C)C[C@H](O)CC(=O)[O-] [LEVOCARNITINE]	Not Active	Not Active	Not Active	Not Active	Not Active	Not Active	Not Active				
C[C@H]1COc2c(N3CCN(C)CC3)c(F)cc3c(=O)c(C(=O)O)cn1c23.C[C@H]1COc2c(N3CCN(C)CC3)c(F)cc3c(=O)c(C(=O)O)cn1c23.O [LEVOFLOXACIN]	Not Active	Not Active	Not Active	Not Active	Not Active	Not Active	Not Active				
CCn1cc(C(=O)O)c(=O)c2cc(F)c(N3CCNC(C)C3)c(F)c21 (stereo not given) [LOMEFLOXACIN]	Not Active	Not Active	Not Active	Not Active	Not Active	Not Active	Not Active				
CN1CCCC(CN2c3ccccc3Sc3ccccc32)C1 (stereo not given) [MEPAZINE]	Not Active		Not Active	Not Active	Not Active	Not Active	Not Active	495 nM	259 nM		
Cc1cccc(C)c1NC(=O)C1CCCCN1C (stereo not given) [MEPIVACAINE]	Not Active	Not Active	Not Active	Not Active	Not Active	Not Active	Not Active				
CN(C)C(=N)NC(=N)N [METFORMIN]	Not Active	Not Active	Not Active	Not Active	Not Active	Not Active	Not Active				
CC(C)(C)NCC(O)COc1cccc2c1CC(O)C(O)C2 (stereo not given) [NADOLOL]	Not Active	Not Active	Not Active	Not Active	Not Active	Not Active	Not Active				
C[C@]12CC[C@H]3[C@@H](CCC4=CC(=O)CC[C@@H]43)[C@@H]1CC[C@@H]2O [NANDROLONE]	Not Active	Not Active	Not Active	Not Active	Not Active	Not Active	Not Active				
